What was measured:
[1] = biological target: Gamma-aminobutyric acid receptor subunit gamma-1 (Rattus norvegicus, UniProt P23574); test: Inhibition of GABA-stimulated 36Cl- uptake by membrane vesicles of rat cerebral cortex; format: functional, tissue-based
[2] = biological target: GABA-A receptor; anion channel; test: In vitro inhibition of [35S]-TBPS binding to EDTA/water-dialyzed mouse brain P2 membranes; format: tissue-based
[3] = biological target: T1, GABA-A receptor; anion channel (Mus musculus) (UniProt Q8BHJ7+P26048+Q8QZW7+P50571+Q9R0Y8+P22723+A2AMW3+P62812+Q9JLF1+P26049+P22933+Q9D6F4+P63080+P27681+P16305); test: Ex vivo inhibition of [35S]TBPS binding to mouse brain membranes in the presence of Diazepam after 30 min; format: tissue-based; details: Membrane
[4] = biological target: T1, GABA-A receptor; anion channel (Mus musculus); test: Ex vivo inhibition of [35S]TBPS binding to mouse brain membranes after 30 min; format: tissue-based; details: Membrane
[5] = biological target: GABA-A receptor; anion channel; test: In vitro inhibition of [35S]TBPS binding to EDTA/water-dialyzed mouse brain P2 membranes; format: tissue-based
[6] = biological target: T1, GABA-A receptor; anion channel (Mus musculus); test: Ex vivo inhibition of [35S]TBPS binding to mouse brain membranes in the presence of phenobarbital after 30 min; format: tissue-based; details: Membrane

Gamma-aminobutyric acid receptor subunit gamma-1, sequence (P23574 whole entry): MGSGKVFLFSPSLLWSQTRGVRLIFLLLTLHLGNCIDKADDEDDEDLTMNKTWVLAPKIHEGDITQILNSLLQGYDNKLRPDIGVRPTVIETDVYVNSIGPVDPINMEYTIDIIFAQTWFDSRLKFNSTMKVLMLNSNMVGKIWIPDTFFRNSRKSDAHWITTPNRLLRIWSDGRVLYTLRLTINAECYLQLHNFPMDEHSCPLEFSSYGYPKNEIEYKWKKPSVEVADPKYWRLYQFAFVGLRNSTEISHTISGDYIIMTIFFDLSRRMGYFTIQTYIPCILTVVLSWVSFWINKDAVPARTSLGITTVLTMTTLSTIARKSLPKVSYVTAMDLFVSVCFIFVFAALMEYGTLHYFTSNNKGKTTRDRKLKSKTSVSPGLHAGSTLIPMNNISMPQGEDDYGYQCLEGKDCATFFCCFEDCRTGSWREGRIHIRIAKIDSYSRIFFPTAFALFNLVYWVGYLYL

| SMILES | IC50 [1] [µM] | IC50 [2] [µM] | inhibition [3] [%] | inhibition [4] [%] | IC50 [5] [µM] | inhibition [6] [%] |
| --- | --- | --- | --- | --- | --- | --- |
| CC(C)(C)C12COC(c3ccc(C#N)cc3)(OC1)OC2 | 0.04 | 0.0025 | – | – | – | – |
| C#Cc1ccc(C23OCC(C(C)(C)C)(CO2)C(C#N)O3)cc1 (configuration not stated) | 0.025 | – | 59 | 68 | 0.00025 | 61 |

Source: ChEMBL document CHEMBL1124119, “(+/-)-4-tert-butyl-3-cyano-1-(4-ethynylphenyl)-2,6,7-trioxabi cyclo[2.2.2]octane: synthesis of a remarkably potent GABAA receptor antagonist” (J Med Chem, 1988)
